In US20130029964A1, “[5, 6] HETEROCYCLIC COMPOUND” (DAIICHI SANKYO COMPANY, LIMITED, priority 2010, published 2013):

Test system: ST2 cells, murine bone marrow-derived stromal cells
Assay: Osteoblast differentiation test (ALP activity)
Format: cell-based
Details: Mus musculus, ST-2, 96 h, at 0.1 μg/mL, control group (0.1% DMSO) = 100%, four days of culturing, read-out: alkaline phosphatase activity
Procedure: ST2 cells, murine bone marrow-derived stromal cells, (obtained from RIKEN) were used.
In this test, α-MEM media (obtained from GIBCO BRL Cat. No. 10370-021) containing 10% (v/v) of inactivated calf serum (obtained from Hyclone Laboratories, Inc.) and 1% (v/v) of Penicillin-Streptomycin Liquid (obtained from GIBCO BRL Cat. No. 15140-122) (hereinbelow, abbreviated as 10%-FBS-αMEM) were used. In this test, all culturing was performed in a CO2 incubator (37° C., 95% humidity, 5% CO2).
The aforementioned cells were detached with 2 mL of a 0.25% trypsin solution (obtained from GIBCO BRL Cat. No. 15050-065) and dispersed in 10 mL of 10%-FBS-αMEM. Subsequently, the cells were collected by centrifugation (25° C., 800 rpm, five minutes). Then, a cell suspension containing 40000 of the cells/mL of 10%-FBS-αMEM was prepared. The cell suspension was then dispensed into 96-well plates (the product of Falcon), 100 μL per well, at a density of 4000 cells/well, followed by culturing for 24 hours. To the wells, except for the below-described well containing a control group, the compound was dispensed at final concentrations of 0.01, 0.03, 0.1, and 0.3 μg/ml. To the well of a control group, DMSO was dispensed at a final concentration of 0.1% (v/v). After four days of culturing, the activity of alkaline phosphatase (ALP) was measured in each group.
The measurement of ALP activity was performed as follows. That is, the medium in each well of the culture plates was completely removed. Each well was then washed by dispensing 100 μL of Dulbecco's phosphate buffer (obtained from GIBCO BRL Cat. No. 14190-144) and then removing it. A cell lysate solution containing 10 mM MgCl2 and 2% (v/v) TritonX-100 (Sigma) was prepared and dispensed at 50 μL/well, followed by stirring at room temperature for five minutes. An ALP substrate solution containing 50 mM diethanolamine (Wako Pure Chemical Industries, Ltd., Cat. No. 099-03112) and 20 mM p-nitrophenyl phosphate (Wako Pure Chemical Industries, Ltd., Cat. No. 147-02343) was prepared and dispensed at 50 μL/well, and the plates were left to stand at room temperature for 10 minutes. Subsequently, absorbance was measured by a microplate reader (Bio-Rad Laboratories, Inc.). Setting the measurement value of the control group of each plate at 100%, alkaline phosphatase activity (increase (%)) in the test compound-addition group was calculated, which was assessed as the degree of osteoblast differentiation.

SMILES | activity at 0.1 µg/mL
COc1ccc2ncc(-c3ccc(NCCO)cc3)n2c1 [Example 123] | ≥ 200%
OCCOc1ccc(-n2cnc3cc(-c4ccccc4)ccc32)cc1 [Example 41] | ≥ 200%
CC(=O)N1CCC(OCCOc2ccc(-n3cnc4ccccc43)cc2)CC1 [Example 46] | ≥ 200%
